Source: ChEMBL document CHEMBL1201862, “PubChem BioAssay data set” (2004)
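Following 48 hours of exposure in 96-well plates, responses at five concentrations were used to interpolate endpoints linearly. GI50: concentration for 50% inhibition of growth.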 Active and inactive are the calls of the source. Rule as the data show it: active = GI50 up to about 1.1 µM and inactive = higher.

Assays:
Test in all cases: growth of human tumour cells (NCI), 48 h
A498 = test system: A498
DMS-273 = test system: DMS-273
HOP-92 = test system: HOP-92
K562 = test system: K562
KM12 = test system: KM12
M14 = test system: M14
MOLT-4 = test system: MOLT-4
NCI-H226 = test system: NCI-H226
SF-268 = test system: SF-268
SK-MEL-2 = test system: SK-MEL-2
SN12C = test system: SN12C
SNB-75 = test system: SNB-75
U-251 = test system: U-251
UACC-257 = test system: UACC-257
UACC-62 = test system: UACC-62
HCC 2998 = test system: HCC 2998

Measured: GI50

COC(=O)C(=O)C(C(=O)C(=O)Nc1ccccc1[N+](=O)[O-])c1nc2ccc([N+](=O)[O-])cc2nc1O (configuration not stated)
inactive: A498 > 100 µM | DMS-273 > 100 µM | HOP-92 > 100 µM | K562 > 100 µM | KM12 > 100 µM | M14 > 100 µM | MOLT-4 > 100 µM | NCI-H226 > 100 µM | SF-268 > 100 µM | SK-MEL-2 > 100 µM | SN12C > 100 µM | SNB-75 > 100 µM | U-251 > 100 µM | UACC-257 > 100 µM | UACC-62 > 100 µM

CC1COS(=O)N1c1ccccc1 (configuration not stated)
inactive: A498 > 100 µM | DMS-273 > 100 µM | HCC 2998 > 100 µM | HOP-92 > 100 µM | K562 > 100 µM | KM12 > 100 µM | M14 > 100 µM | MOLT-4 > 100 µM | NCI-H226 > 100 µM | SF-268 > 100 µM | SK-MEL-2 > 100 µM | SNB-75 > 100 µM | U-251 > 100 µM | UACC-257 > 100 µM | UACC-62 > 100 µM

O=C(N/C(=C\c1ccc2c(c1)OCO2)c1nc2ccccc2[nH]1)c1ccccc1
inactive: A498 33.1 µM | DMS-273 28.8 µM | HCC 2998 27.7 µM | HOP-92 18.8 µM | K562 24.3 µM | KM12 32.7 µM | M14 25.1 µM | MOLT-4 20.2 µM | NCI-H226 21 µM | SF-268 38.2 µM | SK-MEL-2 26.4 µM | SN12C 30.2 µM | SNB-75 20.9 µM | U-251 32 µM | UACC-257 19.6 µM | UACC-62 20.9 µM

N#CCC(=O)N/N=C(/C(=O)Nc1ccccc1)C1C(=O)N(c2ccccc2)N=C1N (configuration not stated)
inactive: A498 > 100 µM | DMS-273 > 100 µM | HCC 2998 > 100 µM | HOP-92 > 100 µM | K562 > 100 µM | KM12 > 100 µM | M14 > 100 µM | MOLT-4 > 100 µM | NCI-H226 > 100 µM | SF-268 > 100 µM | SK-MEL-2 > 100 µM | SN12C > 100 µM | SNB-75 > 100 µM | U-251 > 100 µM | UACC-257 > 100 µM | UACC-62 > 100 µM

Clc1c(Cl)c2c(Cl)c(Cl)c1C[PH](c1ccccc1)(c1ccccc1)CC[PH](c1ccccc1)(c1ccccc1)Cc1c(Cl)c(Cl)c(c(Cl)c1Cl)C[PH](c1ccccc1)(c1ccccc1)CC[PH](c1ccccc1)(c1ccccc1)C2
inactive: A498 11.4 µM | DMS-273 2.42 µM | HCC 2998 3.63 µM | HOP-92 2.26 µM | K562 2.09 µM | KM12 2.34 µM | M14 4.51 µM | MOLT-4 3.27 µM | NCI-H226 5.07 µM | SF-268 3.39 µM | SK-MEL-2 2.16 µM | SN12C 3.28 µM | SNB-75 3.46 µM | U-251 3.22 µM | UACC-257 2.38 µM | UACC-62 1.85 µM

CC(C)N(C(=O)C12C3C4C1(I)C1C2C3(I)C41C(=O)N(C(C)C)C(C)C)C(C)C (configuration not stated)
inactive: A498 > 100 µM | DMS-273 > 100 µM | HCC 2998 > 100 µM | HOP-92 > 100 µM | K562 > 43.4 µM | KM12 > 43.2 µM | M14 > 100 µM | MOLT-4 > 100 µM | NCI-H226 > 100 µM | SF-268 > 100 µM | SK-MEL-2 > 100 µM | SN12C > 100 µM | SNB-75 > 73.1 µM | U-251 > 71 µM | UACC-257 > 100 µM | UACC-62 > 100 µM

CCOC(=O)C1C(c2ccc(Br)cc2)N(Cc2ccccc2)C(c2ccc(Br)cc2)C(C(=O)OC)S1(=O)=O (configuration not stated)
inactive: DMS-273 74.1 µM | HCC 2998 > 100 µM | K562 87.7 µM | KM12 > 100 µM | M14 83.4 µM | MOLT-4 > 100 µM | NCI-H226 46.8 µM | SF-268 39.6 µM | SK-MEL-2 > 100 µM | SN12C > 100 µM | SNB-75 21.3 µM | UACC-257 24.9 µM | UACC-62 > 100 µM

CCCCCCCCCCCCCCCC(=O)NC1CCc2cc(O)c(O)c(O)c2-c2ccc(SC)c(=O)cc21 (configuration not stated)
inactive: A498 19.3 µM | DMS-273 4.16 µM | HCC 2998 4.01 µM | HOP-92 2.51 µM | K562 1.89 µM | KM12 6.22 µM | M14 8.02 µM | MOLT-4 9.44 µM | NCI-H226 10.6 µM | SF-268 5.28 µM | SN12C 12.9 µM | SNB-75 2.62 µM | U-251 1.29 µM | UACC-257 11.1 µM | UACC-62 2.9 µM
